Patent US5789431A, “Naphthoquinone antitumor compound and method” (The University of North Carolina at Chapel Hill, priority 1996, dated 1998)
Where two headings read alike, the source gives them in different places.

What was measured:
[1] = tested on: human tumor cell lines; format: cell-based; conditions: for cytotoxicity against tumor cells (in words): cancer cell line panel; for GI50: Homo sapiens
[2] = tested on: M14; assay: in vitro melanoma cell growth inhibition (NCI screen)
[3] = tested on: SK-MEL-28; assay: as above
[4] = tested on: SK-MEL-5; assay: as above
[5] = tested on: UACC-62; assay: as above
[6] = tested on: CCRF-CEM; assay: in vitro leukemia cell growth inhibition (NCI screen)
[7] = tested on: HL-60(TB); assay: as above
[8] = tested on: K-562; assay: as above
[9] = tested on: RPMI-8226; assay: as above
[10] = tested on: SR; assay: as above
[11] = tested on: HCT-116; assay: in vitro colon cancer cell growth inhibition (NCI screen)
[12] = tested on: HCT-15; assay: as above
[13] = tested on: KM 12; assay: as above
[14] = tested on: SW 620; assay: as above
[15] = tested on: ACHN; assay: in vitro renal cancer cell growth inhibition (NCI screen)
[16] = tested on: RXF-393; assay: as above
[17] = tested on: IGROV1; assay: in vitro ovarian cancer cell growth inhibition (NCI screen)
[18] = tested on: MCF7/ADR-RES; assay: in vitro breast cancer cell growth inhibition (NCI screen)
[19] = tested on: BT-549; assay: as above
[20] = tested on: T-47D; assay: as above
[21] = tested on: PC-3; assay: in vitro prostate cancer cell growth inhibition (NCI screen)
[22] = tested on: NCI-H522; assay: in vitro non-small cell lung cancer cell growth inhibition (NCI screen)
[23] = tested on: LOX1MVI; assay: in vitro melanoma cell growth inhibition (NCI screen)
[24] = tested on: MOLT-4; assay: in vitro leukemia cell growth inhibition (NCI screen)
[25] = tested on: SF-268; assay: in vitro CNS cancer cell growth inhibition (NCI screen)
[26] = tested on: SF-539; assay: as above
[27] = tested on: U 251; assay: as above
[28] = tested on: DLD-1; assay: in vitro colon cancer cell growth inhibition (NCI screen)
[29] = tested on: HT 29; assay: as above
[30] = tested on: 786-0; assay: in vitro renal cancer cell growth inhibition (NCI screen)
[31] = tested on: OVCAR-8; assay: in vitro ovarian cancer cell growth inhibition (NCI screen)
[32] = tested on: NCI-H460; assay: in vitro non-small cell lung cancer cell growth inhibition (NCI screen)
[33] = tested on: LXFL 529; assay: as above
[34] = tested on: MALME-3M; assay: in vitro melanoma cell growth inhibition (NCI screen)
[35] = tested on: M19-MEL; assay: as above
[36] = tested on: OVCAR-3; assay: in vitro ovarian cancer cell growth inhibition (NCI screen)
[37] = tested on: NCI-H23; assay: in vitro non-small cell lung cancer cell growth inhibition (NCI screen)
[38] = tested on: SK-OV-3; assay: in vitro ovarian cancer cell growth inhibition (NCI screen)
[39] = tested on: NCI-H266; assay: in vitro non-small cell lung cancer cell growth inhibition (NCI screen)
[40] = tested on: UACC-257; assay: in vitro melanoma cell growth inhibition (NCI screen)
[41] = tested on: COLO-205; assay: in vitro colon cancer cell growth inhibition (NCI screen)
[42] = tested on: MCF-7; assay: in vitro breast cancer cell growth inhibition (NCI screen)
[43] = tested on: MDA-MB-435; assay: as above
[44] = tested on: MDA-N; assay: as above
[45] = tested on: HOP-92; assay: in vitro non-small cell lung cancer cell growth inhibition (NCI screen)
[46] = non-small cell lung, CNS, melanoma, colon, leukemia, small cell lung, and renal cancer cell lines, read-out: logGI50 values (range over cell lines) (converted)

| SMILES | cytotoxicity against tumor cells (in words) [1] | cytotoxicity log GI50 [2] [M] | cytotoxicity log GI50 [4] [M] | cytotoxicity log GI50 [5] [M] | cytotoxicity log GI50 [6] [M] | cytotoxicity log GI50 [7] [M] | cytotoxicity log GI50 [8] [M] | cytotoxicity log GI50 [10] [M] | cytotoxicity log GI50 [11] [M] | cytotoxicity log GI50 [12] [M] | cytotoxicity log GI50 [16] [M] | cytotoxicity log GI50 [22] [M] | GI50 [1, 46] [µM] | cytotoxicity log GI50 [23] [M] | cytotoxicity log GI50 [24] [M] | cytotoxicity log GI50 [25] [M] | cytotoxicity log GI50 [26] [M] | cytotoxicity log GI50 [27] [M] | cytotoxicity log GI50 [29] [M] | cytotoxicity log GI50 [34] [M] | also measured |
| --- | --- | --- | --- | --- | --- | --- | --- | --- | --- | --- | --- | --- | --- | --- | --- | --- | --- | --- | --- | --- | --- |
| COc1cc(OC)cc(C(=O)NC2=C(Cl)C(=O)c3ccccc3C2=O)c1 [Compound 2h] | similarly potent cytotoxic activity | -6.26 | -5.89 | -6.82 | -6.70 | -7.04 | -6.39 | -6.33 | -6.35 | -6.38 | -6.28 | -6.49 |  |  |  |  |  |  |  |  | cytotoxicity log GI50 [3]: -5.85 M; cytotoxicity log GI50 [9]: -6.31 M; cytotoxicity log GI50 [13]: -5.92 M; cytotoxicity log GI50 [14]: -6.24 M; cytotoxicity log GI50 [15]: -6.39 M; cytotoxicity log GI50 [17]: -5.86 M; cytotoxicity log GI50 [18]: -5.83 M; cytotoxicity log GI50 [19]: -5.81 M; cytotoxicity log GI50 [20]: -5.85 M; cytotoxicity log GI50 [21]: -6.24 M |
| Cc1ccc(Cn2c(C)nc3c2C(=O)c2ccccc2C3=O)cc1 [Compound 17] | highly active against many of the cancer cell types tested |  |  | -5.95 | -5.70 | -5.72 | -6.08 | -6.48 | -6.12 | -6.21 |  | -5.50 | 1 to 10 | -6.22 | -6.19 | -5.46 | -5.88 | -5.73 | -5.90 |  | cytotoxicity log GI50 [28]: -5.91 M; cytotoxicity log GI50 [14]: -5.48 M; cytotoxicity log GI50 [30]: -5.66 M; cytotoxicity log GI50 [31]: -5.52 M; cytotoxicity log GI50 [32]: -6.41 M; cytotoxicity log GI50 [33]: -5.76 M |
| COc1ccc(Cn2c(C)nc3c2C(=O)c2ccccc2C3=O)cc1 [Compound 18] |  |  |  | -5.34 | -5.39 | -5.38 | -5.49 | -5.84 | -5.43 | -5.76 |  | -5.22 | 1 to 10 | -5.60 | -5.59 | -5.35 | -5.42 | -5.20 | -5.31 |  | cytotoxicity log GI50 [28]: -5.33 M; cytotoxicity log GI50 [13]: -5.27 M; cytotoxicity log GI50 [30]: -5.27 M; cytotoxicity log GI50 [32]: -5.62 M; cytotoxicity log GI50 [33]: -5.37 M |
| Cc1nc2c(n1Cc1ccc(F)cc1)C(=O)c1ccccc1C2=O [Compound 19] |  |  | -4.99 | -5.28 | -4.98 | -5.26 | -5.25 | -5.37 | -5.16 | -5.37 | -4.83 | -4.97 | 1 to 10 | -5.14 | -5.27 | -5.34 | -5.16 | -5.18 | -5.03 | -5.05 | cytotoxicity log GI50 [35]: -5.44 M; cytotoxicity log GI50 [30]: -4.88 M; cytotoxicity log GI50 [36]: -4.82 M; cytotoxicity log GI50 [37]: -4.88 M; cytotoxicity log GI50 [32]: -5.39 M; cytotoxicity log GI50 [33]: -4.87 M |
| CCn1c(CCl)nc2c1C(=O)c1ccccc1C2=O [Compound 22] | highly active against many of the cancer cell types tested |  | -6.38 | -5.89 | -6.76 |  |  | -6.40 |  |  |  | -6.53 |  |  | -6.45 |  |  |  |  | -5.98 | GI50 ([1]; cancer cells, printed as GI50, log scale values, read-out: GI50 values): 0.158 to 1 µM; cytotoxicity log GI50 [38]: -6.29 M; cytotoxicity log GI50 [39]: -6.65 M |
| CCn1c(-c2ccc(F)cc2)nc2c1C(=O)c1ccccc1C2=O [Compound 26] |  | -4.15 |  |  |  |  |  |  |  |  | -4.27 |  |  |  |  |  |  |  |  | -4.35 | GI50 ([1]; cancer cell panel, general / most cell lines, read-out: logGI50 values in the cancer cell line panel (converted)): ~10 µM; cytotoxicity log GI50 [36]: -4.47 M; cytotoxicity log GI50 [38]: -4.68 M |
| COc1ccc(-n2c(CCCC(=O)O)nc3c2C(=O)c2ccccc2C3=O)cc1 [Compound 59] |  | -4.81 |  | -4.63 | -4.44 | -4.51 |  |  | -4.44 | -4.35 |  | -4.59 |  |  |  |  |  |  |  | -4.82 | cytotoxicity log GI50 [40]: -4.56 M; cytotoxicity log GI50 [9]: -4.44 M; cytotoxicity log GI50 [41]: -4.43 M; cytotoxicity log GI50 [36]: -4.48 M; cytotoxicity log GI50 [42]: -4.49 M; cytotoxicity log GI50 [43]: -4.58 M; cytotoxicity log GI50 [44]: -4.50 M; cytotoxicity log GI50 [19]: -5.06 M; cytotoxicity log GI50 [45]: -4.69 M; cytotoxicity log GI50 [37]: -4.36 M |
